In patent publication US20250027041A1, “COMPOSITION FOR INDUCING TRANSDIFFERENTIATION AND STEM CELLS TREATED THEREWITH” (YJ CERAPEUTICS INC., priority 2021, published 2025):

Tests used:
CtBP2 = target: T1, CtBP2 (Homo sapiens, UniProt P56545); experiment: DARTS assay, CtBP2; type: binding
T1 construct: expressed in transfected cells; host or cells: human UCB-MSC, lysate
Method: To identify proteins binding to compounds of the present invention, YJ101 (Chemical Formula 1), YJ102 (Chemical Formula 2), and YJ103 (Chemical Formula 3), in human umbilical cord blood-derived mesenchymal stem cells (UCB-MSCs), DART assay was performed. Specifically, UCB-MSCs (Kang Stem Cell, Passage #6) were dispensed into a 100 mm culture dish and incubated in a KSB-3 medium (Cat. K3901, Kang Stem Cell) containing 10% FBS (Cat. 16000044), and then collected and washed with PBS. Thereafter, the cells were added with an IP50 lysis buffer [50 mM Tris-HCl (pH 7.4), 150 mM NaCl, 2 mM MgCl2, and 0.1% NP40], sonicated, and centrifuged at 13,000×g for 10 minutes at 4° C. to obtain the supernatant. The supernatant was added with 1/10 volume of 10×TNC buffer [500 mM Tris-HCl (pH 8.0), 500 mM NaCl, and 100 mM CaCl2)], and protein concentration was measured using a Bradford method. Thereafter, 9 μl of a cell lysate and 1 μl of YJ101 (20 or M), YJ102 (20 or 30 μM), or YJ103 (20 or 40 μM) were mixed in a microcentrifuge tube and incubated at room temperature for 1 hour. A control group was treated with 1 μl of DMSO. After incubation, 1 μl (1 mg/ml) of Pronase (Cat. 10 165 921 001, Roche) diluted to 1 mg/ml using a 1×TNC buffer was added to the microcentrifuge tube and incubated at 37° C. for 15 minutes. After incubation, ⅕ volume of a 5×SDS-PAGE loading buffer was added, heated at 100° C. for 5 minutes, and then SDS-PAGE and Coomassie blue staining were performed. In addition, UCB-MSCs were dispensed at 4×10^5 cells/ml in a 60 mm culture dish, and after 24 hours, 4 μg of FLAG-CtBP1 or FLAG-CtBP2 DNA was transfected using 4 μl of jetPRIME. After 48 hours, the cells were collected, and proteins were extracted and quantified using the same method as above. DARTS assay was performed with the cell lysate of CtBP1 and Y102 labeled with FLAG, and Western blot assay was performed with a flag antibody (Cat. F3165, Sigma).

[1] = test system: HES1, Sox2 and OCT4 gene promoters (CtBP1, CtBP1-LSD1 complex); experiment: ChIP assay, target genes of CtBP1-YJ102; type: cell-based, human; details: YJ102, 2 days, UCB-MSC
Method: To identify a target gene of CtBP1-YJ102 in human UCB-MSC, chromatin immunoprecipitation (ChIP) assay was performed. Specifically, 2×10^6 human UCB-MSCs were dispensed into a 100 mm culture dish, treated with 10 μl of YJ102 (30 mM) or DMSO (control) the next day, and incubated for 2 days. For cross-linking and DNA sharing, the cells were added with formaldehyde to be 1% to the culture dish in which UCB-MSCs were incubated and incubated at 37° C. for 10 minutes to be fixed. The culture medium was removed and washed twice with PBS containing a protease inhibitor to collect the cells. The cells were centrifuged at 3000 rpm at 4° C. for 5 minutes to remove the supernatant, and the cells were added with an SDS lysis buffer containing a protease inhibitor, incubated on ice for 10 minutes, and lysed by ultrasound. The cells were centrifuged at 13,000 rpm at 4° C. for 10 minutes, the supernatant was transferred to a new microcentrifuge tube, and added with 1/10 volume of ChIP Dilution Buffer. Thereafter, DNA was purified and subjected to agarose gel electrophoresis to confirm that the DNA was shared at 200 to 1000 bp. In addition, for chromatin immunoprecipitation, the Protein G agarose slurry was washed with PBS, blocked with 1 ml of 1% BSA, and then washed with PBS, added with a cell lysate lysed by ultrasound and primary antibodies included anti-CtBP1 antibody (Cat. 07-306, Millipore), anti-LSD1 antibody (Cat. A1156, Abclonal), and Normal rabbit IgG (Cat. 12-370, Merck Millipore) (control group) at 1 μg each, and then incubated using a rotator overnight at 4° C. The next day, the supernatant was removed by centrifugation, and DNA-antibody-agarose beads were washed once with Low Salt Immune Complex Wash Buffer; High Salt Immune Complex Wash Buffer; and LiCl Immune Complex Wash Buffer in sequence, and then washed twice with 1×TE. The DNA-antibody-agarose beads were added with 250 μl of elution buffer (1% SDS, 0.1M NaHCO3), incubated at room temperature for 15 minutes using a rotator, and centrifuged, and the supernatant was transferred to a new microcentrifuge tube. The elution process was repeated one more time and the eluate was mixed. The eluate was added with 20 μl of 5 M NaCl, heated at 65° C. for 4 hours, and then added with 10 μl of 0.5 M EDTA, 20 μl of 1 M Tris-HCl (pH 6.5), and 2 μl of proteinase K (10 mg/ml) and incubated at 45° C. for 1 hour. Phenol/chloroform extraction and ethanol precipitation were performed, the DNA pellet was resuspended in DW, and then real-time quantitative PCR was performed using primers shown in Table 2 below.

UCB-MSCs = experiment: Tuj1 immunochemical assay, direct conversion of UCB-MSCs into ciNSC5; type: cell-based, human; details: 30 μM, 5 days
Method: Immunochemical assay was performed to confirm whether UCB-MSCs were transdifferentiated into ciNSC5, Tuj1-positive neural progenitor cells, by the compounds of the present invention, YJ101, YJ102, and YJ103. Specifically, UCB-MSCs were dispensed at 2.1×10^4 cells/well in a 12-well plate containing an 18 mm cover glass (a DMSO control group was dispensed at 3.5×10^3 cells/well). […] The culture medium was removed, washed with PBS, and then fixed with 4% paraformaldehyde at room temperature for 10 minutes. After washed three times with PBS, the cells were permeabilized with PBS-T containing 0.5% Triton X-100 for 10 minutes, washed with PBS-T three times for 10 minutes each, and then blocked with a blocking solution (PBS-T containing 5% BSA and 5% goat serum) for 1 hour. Thereafter, the cells were treated with anti-Tuj1 antibody (Cat. 801201, BioLegend) diluted 1/5000 in a blocking solution and incubated at 4° C. overnight. The next day, the cells were washed 10 times for 10 minutes each with PBS-T, and then treated with anti-mouse IgG-FITC diluted 1/500 in a blocking solution, and incubated for 1 hour in dark conditions. Next, the cells were washed 10 times for 10 minutes each with PBS-T, mounted with a mounting solution containing DAPI, and then observed with a confocal microscope.

overexpressed CtBP2 protection from degradation by pronase (DARTS) (CtBP2; FLAG-CtBP2 transfected UCB-MSC lysate): protected
CtBP2 protection from degradation by pronase (DARTS) (CtBP2; endogenous CtBP2, UCB-MSC lysate): protected
binding to CtBP2 (CtBP2; human UCB-MSC): bound to CtBP1 and CtBP2
CtBP1-LSD1 complex binding to Sox2 gene promoter [1]: bound to a Sox2 gene promoter
CtBP1 binding to HES1 gene promoter [1]: increased
amount of CtBP1-LSD1 complex binding to OCT4 gene promoter [1]: increased
SMILES: CCc1ccc(N(C(=O)COC)c2nc3cc(Cl)ccc3o2)cc1 [YJ102]
HES1 expression [1]: decrease HES1 expression
OCT4 expression [1]: induce the expression of OCT4
Sox2 expression [1]: increase Sox2 expression
direct conversion from UCB-MSCs to ciNSC5 (UCB-MSCs): induced direct conversion
expression of Tuj1 (UCB-MSCs; UCB-MSC): increased
